Key:
[1] = system: Jurkat cells; test: PPIase activity on cell surface (PACS), Jurkat cells; format: cell-based; conditions: 1 µL medium with 200 µM inhibitor added to 19 µL
Procedure: (§1) To investigate PACS, we need to distinguish between different families of PPIase. […] PACS must also be distinguished from that in culture medium. Adhesive cells such as fibroblasts (human dermal fibroblasts isolated from neonatal foreskin (HDFn)) or mesenchymal stromal cells (MSCs) were washed by simple pipetting and pooling. Washing of suspension cells such as T cells was performed by centrifugation. […] To minimize the potential damage to cells, one washing step was used in the PACS measurement for suspension cells (Supplementary Fig. 10).
(§2) The assay was performed in a cold room. If there was no additional description, the assays were performed in CO2-independent medium supplemented with 10% (v/v) h.i. FBS (medium-h.i. FBS) and 2mM L-glutamine. […] FBS to a final concentration of 120 µg mL^−1 (two times substrate stock). α-Chymotrypsin was prepared freshly. Fifteen micrograms of α-chymotrypsin was dissolved in 2 mL medium-h.i. FBS, and the pH was adjusted with 10 µL 1 M NaOH.
One or more flasks of cells (5 mL per flask, depending on the maximum culture density of each cell line) were harvested by centrifuging at 1000 rpm for 3 min. To remove PPIases from the supernatant originating from the culture, cells were washed one time with 2 mL CO2-independent medium and were resuspended in 1.6 mL of CO2-independent medium with substrate. The cells were centrifuged again, and then 800 µL of the supernatant was taken. The residual volume containing cells was suspended. Nineteen microliters of the cells or supernatant was pipetted to a non-binding 96-well microplate to measure PPIase activity. Four different conditions were performed. […] The plate was kept for 5 min without agitation. The activity measurements were triggered by adding 20 µL of α-chymotrypsin at time 0 min, followed by 1.5 min agitation, and the reaction was stopped after 2 min with 80 µL 20% acetic acid, followed by 15 rounds of up and down pipetting mixing. […]
For the Jurkat cell number activity measurements, two flasks of cells (10 mL) were harvested, washed, and suspended in 600 µL of CO2-independent medium with substrate. The cells were centrifuged again, and then 300 µL supernatant was taken to measure the activity. The residual volume with cells was suspended and used to measure activity (cell density: 2.4 × 10^7 cells/mL). Four different conditions were performed: 20 µL supernatant or cell with 0 µL substrate, 10 µL supernatant or cell with 10 µL substrate, 5 µL supernatant or cell with 15 µL substrate, and 2.5 µL supernatant or cell with 17.5 µL substrate. […]

[2] = system: human mesenchymal stromal cells (MSCs); test: PPIase activity on cell surface (PACS), MSCs; format: cell-based; conditions: MSC, inhibitor final concentration of 10 µM
Procedure: as §1, §2
(§3) The cells (10,000 per well) were cultured in 96-well plates for 24 h. The supernatant was removed by turning the plate upside down. The cells were washed three times for 5 min under gentle shaking using supplemented CO2-independent medium (100 µL/well), and the supernatant was removed as before. The cells were kept in supplemented CO2-independent medium (100 µL/well) for measuring PPIase activity.
(§4) The medium was removed with a pipette. […] The mixture was kept for 5 min without agitation, followed by 1.5 min of agitation (linear shaking by hand with a speed of around 200 rounds/min). Twenty microliters were taken from the supernatant and measured along with the cell fraction (the remaining 20 µL) for PPIase activity. The activity measurements were triggered by adding 20 µL α-chymotrypsin at time 0 min, followed by 1.5 min of agitation, and the reaction was stopped at time 2 min with 80 µL of 20% acetic acid followed by 15 rounds of up and down pipetting mixing. Four independent experiments were performed on the same day.

[3] = system: human dermal fibroblasts isolated from neonatal foreskin (HDFn); test: PPIase activity on cell surface (PACS), HDFn; format: cell-based; conditions: inhibitor final concentration of 10 µM
Procedure: To investigate PACS, we need to distinguish between different families of PPIase. […] PACS must also be distinguished from that in culture medium. Adhesive cells such as fibroblasts (human dermal fibroblasts isolated from neonatal foreskin (HDFn)) or mesenchymal stromal cells (MSCs) were washed by simple pipetting and pooling. Washing of suspension cells such as T cells was performed by centrifugation. After the first washing step, no change in PPIase activity in supernatant could be detected through the following washing steps. To minimize the potential damage to cells, one washing step was used in the PACS measurement for suspension cells (Supplementary Fig. 10). […] Adding SLF further reduced the isomerase activity in samples both with and without cells due to the FKBP in the fetal bovine serum (FBS)-containing medium. After the treatment of CsA/SLF, these was no difference in the substrate cis/trans isomerization rate in all the samples. Therefore, neither the cells nor the FBS in the culture medium interferes with the protease-coupled PPIase assay (Fig. 4b).
as §2, with “NaOH. Five millimole CsA, SLF, and CsA/SLF mixture were prepared in DMSO.” for “NaOH.”
as §3, §4

[4] = system: PPIase activity in culture medium (FKBP in the FBS-containing medium); test: PPIase activity in CO2-independent medium with or without FBS (control); format: biochemical, bovine; conditions: for Supernatant PPIase activity k, Exp. 1 / Supernatant PPIase activity k, Exp. 2 / Supernatant PPIase activity k, Exp. 3 / Supernatant PPIase activity k, Mean: no cells
Procedure: as §1, §2

## CCC(C)(C)C(=O)C(=O)N1CCCC[C@H]1C(=O)O[C@H](CCc1ccc(OC)c(OC)c1)c1cccc(OCC(=O)O)c1 [SLF]
[1]; supernatant
  Supernatant PPIase activity k, Exp. 1: 0.00208 s⁻¹
  Supernatant PPIase activity k, Exp. 2: 0.00205 s⁻¹
  Supernatant PPIase activity k, Exp. 3: 0.00194 s⁻¹
  Supernatant PPIase activity k, Exp. 4: 0.00211 s⁻¹
  Supernatant PPIase activity k, Exp. 5: 0.00203 s⁻¹
  Supernatant PPIase activity k, Exp. 6: 0.00196 s⁻¹
  Supernatant PPIase activity k, Mean: 0.002028 s⁻¹
[1]; with cells
  cell surface PPIase activity k, Cell (1st replicate column): 0.0033 s⁻¹
  cell surface PPIase activity k, Cell (2nd replicate column): 0.00321 s⁻¹
  cell surface PPIase activity k, Cell (3rd replicate column): 0.00336 s⁻¹
  cell surface PPIase activity k, Cell (4th replicate column): 0.00308 s⁻¹
  cell surface PPIase activity k, Cell (5th replicate column): 0.00293 s⁻¹
  cell surface PPIase activity k, Cell (6th replicate column): 0.00306 s⁻¹
  cell surface PPIase activity k, Mean: 0.003176 s⁻¹
[2]; supernatant
  Supernatant PPIase activity k, Exp. 1: 0.0025 s⁻¹
  Supernatant PPIase activity k, Exp. 2: 0.00238 s⁻¹
  Supernatant PPIase activity k, Exp. 3: 0.00221 s⁻¹
  Supernatant PPIase activity k, Exp. 4: 0.00211 s⁻¹
  Supernatant PPIase activity k, Mean: 0.0023 s⁻¹
[2]; with cells
  cell surface PPIase activity k, Exp. 2: 0.0036 s⁻¹
  cell surface PPIase activity k, Exp. 3: 0.00293 s⁻¹
  cell surface PPIase activity k, Exp. 4: 0.00339 s⁻¹
  cell surface PPIase activity k, Mean: 0.003307 s⁻¹
[3]; supernatant
  Supernatant PPIase activity k, Exp. 1: 0.00186 s⁻¹
  Supernatant PPIase activity k, Exp. 2: 0.00236 s⁻¹
  Supernatant PPIase activity k, Exp. 3: 0.00238 s⁻¹
  Supernatant PPIase activity k, Mean: 0.0022 s⁻¹
[3]; with cells
  cell surface PPIase activity k, Exp. 2: 0.0027 s⁻¹
  cell surface PPIase activity k, Exp. 3: 0.00286 s⁻¹
  cell surface PPIase activity k, Exp. 4: 0.00333 s⁻¹
  cell surface PPIase activity k, Mean: 0.002963 s⁻¹
[4]; Medium with FBS
  Supernatant PPIase activity k, Exp. 1: 0.00201 s⁻¹
  Supernatant PPIase activity k, Exp. 2: 0.00203 s⁻¹
  Supernatant PPIase activity k, Exp. 3: 0.00197 s⁻¹
  Supernatant PPIase activity k, Mean: 0.002003 s⁻¹
[4]; Medium without FBS
  Supernatant PPIase activity k, Exp. 1: 0.00194 s⁻¹
  Supernatant PPIase activity k, Exp. 2: 0.00197 s⁻¹
  Supernatant PPIase activity k, Exp. 3: 0.00199 s⁻¹
  Supernatant PPIase activity k, Mean: 0.001967 s⁻¹
[4]; supernatant / FBS-containing culture medium (Fig. 4b, first right)
  inhibition of residual PPIase activity in the supernatant: completely inhibited
